One test concerns Phaeosphaeria nodorum. Kind of test: Leaf disc test on wheat, Phaeosphaeria nodorum (Glume Blotch), 5-7 days after application. Conditions: Table 5. The format is in vivo, Phaeosphaeria nodorum (Septoria nodorum) on wheat. Here is the method: (§1) Leaf disks or leaf segments of various plant species were cut from plants grown in the greenhouse. The cut leaf disks, or segments were placed in multiwell plates (24-well format) onto water agar. The leaf disks were sprayed with a test solution before inoculation with the fungal spores. Compounds to be tested were prepared as DMSO solutions (max. 10 mg/ml) which were diluted to the appropriate concentration with water plus 0.025% Tween® 20 just before spraying. The inoculated leaf disks or segments were incubated under defined conditions (temperature, relative humidity, light, etc.) according to the respective test system. A single evaluation of disease level was carried out by visual evaluation 3-9 days days after inoculation, depending on the pathosystem as indicated below. Percent disease control relative to the untreated check leaf disks or segments was then calculated.
Phaeosphaeria Nodorum (Septoria nodorum)/Wheat/Leaf Disc (Glume Blotch)
Wheat leaf segments cv. Kanzler were placed on agar in a multiwell plate (24-well format) and sprayed with the formulated test compound diluted in water. The leaf disks were inoculated with a spore suspension of the fungus 2 days after application. The inoculated test leaf disks were incubated at 20 °C and 75% rh under a light regime of 12 h light/12 h darkness in a climate cabinet and the activity of a compound was assessed as percent disease control compared to untreated when an appropriate level of disease damage appears in untreated check leaf disks (5-7 days after application)

The test system of another test is Mycosphaerella arachidis. As to the kind of experiment: Liquid culture, Mycosphaerella arachidis (Cercospora arachidicola), early leaf spot, 4-5 days. In kind it is cell-based. The following applies: Table 3. Here is the method:
(§2) Mycelia fragments or conidia suspensions of a fungus, prepared either freshly from liquid cultures of the fungus or from cryogenic storage, were directly mixed into nutrient broth.
(§3) A stock solution for compound of Formula I(a) and Formula I(b) was produced in DMSO (max. 10 mg/ml), which was diluted with water plus 0.025% Tween®20 to produce a 10× concentrated sample and 10 μl of this solution was pipetted into a microtiter plate (96-well format). The nutrient broth containing the fungal spores/mycelia fragments was then added to give an end concentration of the tested compound. The test plates were incubated in the dark at 24 °C and 96% rh. The inhibition of fungal growth was determined photometrically after 2-7 days, depending on the pathosystem, and percent antifungal activity relative to the untreated check was calculated.
(§4) The effect of the test compound (Formula I(a), I(b) and Lipopeptin A) was tested against the following fungi under the conditions as outlined above and specifically herein below:
Mycosphaerella arachidis (Cercospora arachidicola)/liquid culture (early leaf spot) Conidia of the fungus from cryogenic storage were directly mixed into nutrient broth (PDB potato dextrose broth). The inhibition of growth was determined photometrically 4-5 days after application.

For the next test, the system named is several fungal species. As to the kind of experiment: Leaf disc or leaf segment tests, summary over the fungi tested. The format is in vivo. Conditions: Tables 4 and 5; relative to the other compounds. Here is the method: as §1
For test [1], the system named is Puccinia recondita f. sp. tritici. Kind of test: Leaf disc/segment test on wheat, Puccinia recondita f. sp. tritici (Brown Rust), 7-9 days after application. In kind it is in vivo. The following applies: Table 5. Here is the method:
as §1
Puccinia recondita f. Sp. Tritici/Wheat/Leaf Disc (Brown Rust)
Wheat leaf segments cv. Kanzler were placed on agar in multiwell plates (24-well format) and sprayed with the formulated test compound diluted in water. The leaf disks were inoculated with a spore suspension of the fungus 1 day after application. The inoculated leaf segments were incubated at 19 °C and 75% rh under a light regime of 12 h light/12 h darkness in a climate cabinet and the activity of a compound was assessed as percent disease control compared to untreated when an appropriate level of disease damage appears in untreated check leaf segments (7-9 days after application).

The subject of the next test is Glomerella lagenarium. Kind of test: Liquid culture, Glomerella lagenarium (Colletotrichum lagenarium), Anthracnose, 3-4 days. In kind it is cell-based. Conditions: Table 3. Here is the method: as §2, §3, §4
Glomerella lagenarium (Colletotrichum lagenarium)/Liquid Culture (Anthracnose)
Conidia of the fungus from cryogenic storage were directly mixed into nutrient broth (PDB potato dextrose broth). The inhibition of growth was measured photometrically 3-4 days after application.

The next test has as its system Botryotinia fuckeliana. As to the kind of experiment: Liquid culture, Botryotinia fuckeliana (Botrytis cinerea), Gray Mould, 3-4 days. In kind it is cell-based. Conditions: Table 3. Here is the method:
as §2, §3, §4
Botryotinia fuckeliana (Botrytis cinerea)/Liquid Culture (Gray Mould)
Conidia of the fungus from cryogenic storage were directly mixed into nutrient broth (Vogels broth). The inhibition of growth is determined photometrically 3-4 days after application.

Test [2] relates to several phytopathogenic fungi. As to the kind of experiment: Liquid culture assays, summary over the fungi tested. In kind it is cell-based. The following applies: Tables 2 and 3; relative to the other compounds. Here is the method: as §2, §3
The effect of the test compound (Formula I(a), I(b) and Lipopeptin A) was tested against the following fungi under the conditions as outlined above and specifically herein below: […]

A further test deals with Zymoseptoria tritici. Kind of test: Liquid culture, Zymoseptoria tritici (Septoria tritici), Septoria leaf blotch, 4-5 days. The format is cell-based. Conditions: Table 3. Here is the method:
as §2, §3, §4
Zymoseptoria tritici (Septoria tritici)/liquid culture (Septoria leaf blotch) Conidia of the fungus from cryogenic storage were directly mixed into nutrient broth (PDB potato dextrose broth). The inhibition of growth was determined photometrically 4-5 days after application.

In another test the test system is Pyrenophora teres. As to the kind of experiment: Leaf disc preventative test on barley, Pyrenophora teres (Net Blotch), 5-7 days after application. The format is in vivo. The following applies: Table 5. Here is the method: as §1
Pyrenophora teres/Barley/Leaf Disc Preventative (Net Blotch)
Barley leaf segments cv. Hasso were placed on agar in a multiwell plate (24-well format) and sprayed with the formulated test compound diluted in water. The leaf segments were inoculated with a spore suspension of the fungus 2 days after application. The inoculated leaf segments were incubated at 20 °C and 65% rh under a light regime of 12 h light/12 h darkness in a climate cabinet and the activity of a compound was assessed as disease control compared to untreated when an appropriate level of disease damage appears in untreated check leaf segments (5-7 days after application).

The subject of test [3] is ROS production induced by flg22. Kind of test: Reactive Oxygen Species (ROS) burst assay with wheat leaf discs. The following applies: Triticum aestivum, foliar, read-out: Fold change (peak ROS).

Consider two molecules from patent US20260347403A1, “FUNGICIDAL COMPOUND” (priority 2022, published 2026).

Numbered stars: 1 amine (or outer) side, 2 acyl side, 3 side chain; on linkers, the order of the positions; unused ones are H or OH. Bridge positions count the residues as written; N and C are the ends. Square brackets hold non-standard residues; d marks the D form. Peptide text beside a SMILES is read from it. * marks the point of attachment. X4 = NC(=O)C[C@@H](O)[C@@H](N[*:1])C(=O)[*:2]; d(aThr) = C[C@@H](O)[C@@H](N)C(=O)O; NMeF = CN[C@@H](Cc1ccccc1)C(=O)O; X3 = CC[C@@H](C)CCCCCCCCCCC(=O)*; dNMeN = CN[C@H](CC(N)=O)C(=O)O

Regarding `CC[C@@H](C)CCCCCCCCCCC(=O)N[C@H]1C(=O)N[C@@H](CC(=O)O)C(=O)N[C@H](CO)C(=O)N[C@@H](CO)C(=O)N(C)[C@H](CC(N)=O)C(=O)N(C)[C@@H](Cc2ccccc2)C(=O)N[C@H]([C@H](O)CC(N)=O)C(=O)N[C@H](CCC(=O)O)C(=O)O[C@@H]1C` [Lipopeptin A, reference compound] (X3-[d(aThr)]D[dS]S[dNMeN][NMeF][X4][dE]; ester 1-C), the “% reduction of fungal growth” value with Phaeosphaeria nodorum (0.82 ppm), in the test on Phaeosphaeria nodorum (2.5 ppm), with Phaeosphaeria nodorum (7.4 ppm), in the test with Phaeosphaeria nodorum (22 ppm), in the test on Phaeosphaeria nodorum (67 ppm) and in the test with Phaeosphaeria nodorum (200 ppm) was 0% each time. The “% reduction of fungal growth” value in test [1] (0.82 ppm) is reported as 0%; in test [1] (2.5 ppm), 0%; in test [1] (7.4 ppm), 0%; in test [1] (22 ppm), 0%; in [1] (67 ppm), 0%; in test [1] (200 ppm), 35%. The “% reduction of fungal growth” value in the test with Pyrenophora teres (0.82 ppm), in the test on Pyrenophora teres (2.5 ppm), with Pyrenophora teres (7.4 ppm), with Pyrenophora teres (22 ppm), with Pyrenophora teres (67 ppm) and in the test on Pyrenophora teres (200 ppm) was 0% in each case. Besides, the “% reduction fungal growth” value with Mycosphaerella arachidis (0.41 ppm), in the test with Mycosphaerella arachidis (1.2 ppm), in the test with Mycosphaerella arachidis (3.7 ppm), with Mycosphaerella arachidis (11 ppm), with Mycosphaerella arachidis (33 ppm) and with Mycosphaerella arachidis (100 ppm) was 0% in each case. Also, the “% reduction fungal growth” value with Glomerella lagenarium (0.41 ppm), in the test on Glomerella lagenarium (1.2 ppm), in the test on Glomerella lagenarium (3.7 ppm), with Glomerella lagenarium (11 ppm), in the test on Glomerella lagenarium (33 ppm) and with Glomerella lagenarium (100 ppm) was 0% each time. In addition, the “% reduction fungal growth” value with Botryotinia fuckeliana (0.41 ppm), in the test with Botryotinia fuckeliana (1.2 ppm), in the test with Botryotinia fuckeliana (3.7 ppm), in the test on Botryotinia fuckeliana (11 ppm), with Botryotinia fuckeliana (33 ppm) and in the test with Botryotinia fuckeliana (100 ppm) was 0% in each case. The “% reduction fungal growth” value with Zymoseptoria tritici (0.41 ppm) worked out at 0%; in the test with Zymoseptoria tritici (1.2 ppm), 0%; with Zymoseptoria tritici (3.7 ppm) it was 0%; in the test on Zymoseptoria tritici (11 ppm), 0%; in the test on Zymoseptoria tritici (33 ppm), 0%; with Zymoseptoria tritici (100 ppm) it was 70%. In the test with several fungal species, the “activity on leaf discs in words” value was “less active”. Besides, the “activity in liquid culture in words” value in test [2] is reported as “less active”.
As to `O=C(O)c1cc(Cl)nc(Cl)c1` [INA, 2.6-dichloro-isonicotinic acid, reference compound], in test [3], the fold induction at 100 ppm was found to be 1.8.
